Source: patent US9012652B2, “Processes for producing cycloalkylcarboxamido-pyridine benzoic acids” (Vertex Pharmaceuticals Incorporated, priority 0208, dated 2015)
Where a name gives a salt, the structure may show the parent alone.

Assay: solubility in water
Format: physicochemical
Details: stated in words in the process description

solubility in water: sparingly soluble
Structure (SMILES): Cc1ccc(NC(=O)C2(c3ccc4c(c3)OC(F)(F)O4)CC2)nc1-c1cccc(C(=O)O)c1 [compound 9, 3-(6-(1-(2,2-difluorobenzo[d][1,3]dioxol-5-yl)cyclopropanecarboxamido)-3-methylpyridin-2-yl)benzoic acid.HCL salt]
